# Measurements reported in the NIST ThermoML archive (doi:10.1021/je060078g).
# ± gives the expanded uncertainty stated by the source.
# Conditions: Liquid; pulse-heating method
Critical pressure,Critical temperature,Structure (SMILES)
3210 ± 110 kPa,783 ± 8 K,O=C(O)CCCc1ccccc1 [4-phenylbutanoic acid]
2600 ± 90 kPa,794 ± 8 K,O=C(O)CCCCCc1ccccc1 [6-phenylhexanoic acid]
2950 ± 100 kPa,790 ± 8 K,O=C(O)CCCCc1ccccc1 [5-phenylvaleric acid]
3460 ± 120 kPa,776 ± 8 K,O=C(O)CCc1ccccc1 [3-phenylpropanoic acid]
2470 ± 90 kPa,798 ± 8 K,O=C(O)CCCCCCc1ccccc1 [7-phenylheptanoic acid]

Structure (SMILES),Critical pressure,Critical temperature
O=C(O)Cc1ccccc1 [phenylacetic acid],3950 ± 140 kPa,766 ± 8 K
